Results reported in PubChem BioAssay AID248 (DTP/NCI, 2004).
“And” between values parts separate entries of the source, which are not always exact repeats. Equal entries are not always repeated. Inconclusive results and toxic doses are left out. Cut-off read from the data, not from the text of the source: active = T/C of 150% or more; inactive = T/C below 125%.

System: L1210 leukemia ip in BDF1 mice, survival T/C
Assay: NCI In Vivo Anticancer Drug Screen. Data for tumor model L1210 Leukemia (intraperitoneal) in B6D2F1 (BDF1) mice
Details: endpoint: mean survival time, higher = longer survival
Method in brief: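 In this screen, tumor-bearing mice given compound are compared to those given vehicle, and their survival values are reported as a treated-to-control quotient.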

[1] = dose: 100.0 mg/kg/injection, schedule: Q01DX009 (ip), vehicle: Klucel (hydroxypropylcellulose) (HPC)
[2] = dose: 100.0 mg/kg/injection, schedule: Q04DX002 (ip), vehicle: Klucel (hydroxypropylcellulose) (HPC)
[3] = dose: 200.0 mg/kg/injection, schedule: Q01DX009 (ip), vehicle: Klucel (hydroxypropylcellulose) (HPC)
[4] = dose: 400.0 mg/kg/injection, schedule: Q01DX009 (ip), vehicle: Klucel (hydroxypropylcellulose) (HPC)
[5] = dose: 400.0 mg/kg/injection, schedule: Q04DX002 (ip), vehicle: Klucel (hydroxypropylcellulose) (HPC)
[6] = dose: 5.0 mg/kg/injection, schedule: Q01DX009 (ip), vehicle: saline with Tween-80
[7] = dose: 100.0 mg/kg/injection, schedule: Q04DX003 (ip), vehicle: Klucel (hydroxypropylcellulose) (HPC)
[8] = dose: 200.0 mg/kg/injection, schedule: Q04DX003 (ip), vehicle: Klucel (hydroxypropylcellulose) (HPC)
[9] = dose: 400.0 mg/kg/injection, schedule: Q04DX003 (ip), vehicle: Klucel (hydroxypropylcellulose) (HPC)
[10] = dose: 100.0 mg/kg/injection, schedule: Q01DX001 (ip), vehicle: saline
[11] = dose: 200.0 mg/kg/injection, schedule: Q01DX001 (ip), vehicle: saline
[12] = dose: 400.0 mg/kg/injection, schedule: Q01DX001 (ip), vehicle: saline
[13] = dose: 200.0 mg/kg/injection, schedule: Q04DX002 (ip), vehicle: Klucel (hydroxypropylcellulose) (HPC)

Measured: T/C

CN(Cc1ccccc1)C(=O)c1ccc(Cl)cc1
inactive: [1] 111 % of control | [2] 101 % of control | [3] 105 % of control | [4] 100 % of control | [5] 89 % of control

c1ccc(C[P+](c2ccccc2)(c2ccccc2)c2ccccc2)cc1
inactive: dose: 3.13 mg/kg/injection, schedule: Q01DX009 (ip), vehicle: Klucel (hydroxypropylcellulose) (HPC) 106 % of control | dose: 5.0 mg/kg/injection, schedule: Q01DX001 (ip), vehicle: saline with Tween-80 98 % of control | dose: 5.0 mg/kg/injection, schedule: Q01DX001 (ip), vehicle: saline 105 % of control | [6] 95 % of control | dose: 6.25 mg/kg/injection, schedule: Q01DX009 (ip), vehicle: Klucel (hydroxypropylcellulose) (HPC) 102 % of control and 95 % of control | dose: 10.0 mg/kg/injection, schedule: Q01DX001 (ip), vehicle: saline with Tween-80 92 % of control | dose: 10.0 mg/kg/injection, schedule: Q01DX001 (ip), vehicle: saline 100 % of control | dose: 10.0 mg/kg/injection, schedule: Q01DX009 (ip), vehicle: saline with Tween-80 87 % of control | dose: 12.5 mg/kg/injection, schedule: Q01DX009 (ip), vehicle: Klucel (hydroxypropylcellulose) (HPC) 107 % of control and 96 % of control and 110 % of control | dose: 12.5 mg/kg/injection, schedule: Q04DX003 (ip), vehicle: Klucel (hydroxypropylcellulose) (HPC) 102 % of control | dose: 20.0 mg/kg/injection, schedule: Q01DX001 (ip), vehicle: saline with Tween-80 90 % of control | dose: 20.0 mg/kg/injection, schedule: Q01DX001 (ip), vehicle: saline 96 % of control | dose: 25.0 mg/kg/injection, schedule: Q01DX009 (ip), vehicle: Klucel (hydroxypropylcellulose) (HPC) 89 % of control | dose: 25.0 mg/kg/injection, schedule: Q04DX003 (ip), vehicle: Klucel (hydroxypropylcellulose) (HPC) 102 % of control | dose: 40.0 mg/kg/injection, schedule: Q01DX001 (ip), vehicle: saline 105 % of control

Cc1ccc(NC(=S)NC(=O)C(C)Oc2ccccc2)cc1Cl (stereo unspecified)
inactive: [1] 94 % of control | [7] 100 % of control | [3] 101 % of control | [8] 101 % of control | [4] 101 % of control | [9] 109 % of control

c1ccc2c(c1)ccc1c3ccncc3ccc21
inactive: [10] 101 % of control | [11] 98 % of control | [12] 98 % of control

COc1cc2nc3cc(Nc4ccccc4)c(=O)c(C(C)=O)c-3n(CCN3CCOCC3)c2cc1OC
inactive: [2] 90 % of control | [13] 87 % of control | [5] 107 % of control

O=C(Nc1ccc(Cl)c(Cl)c1)OCCCl
inactive: dose: 75.0 mg/kg/injection, schedule: Q01DX001 (ip), vehicle: saline 89 % of control | dose: 150.0 mg/kg/injection, schedule: Q01DX001 (ip), vehicle: saline 109 % of control

CC(C)(C)COC(=O)CCN1CC1
inactive: dose: 20.0 mg/kg/injection, schedule: Q01DX009 (ip), vehicle: Klucel (hydroxypropylcellulose) (HPC) 119 % of control | dose: 20.0 mg/kg/injection, schedule: Q04DX003 (ip), vehicle: Klucel (hydroxypropylcellulose) (HPC) 103 % of control | dose: 40.0 mg/kg/injection, schedule: Q01DX009 (ip), vehicle: Klucel (hydroxypropylcellulose) (HPC) 97 % of control | dose: 40.0 mg/kg/injection, schedule: Q04DX003 (ip), vehicle: Klucel (hydroxypropylcellulose) (HPC) 114 % of control | dose: 80.0 mg/kg/injection, schedule: Q04DX003 (ip), vehicle: Klucel (hydroxypropylcellulose) (HPC) 101 % of control | [7] 110 % of control

CNC(=O)C1=Cc2cc(Cl)ccc2OC1
inactive: dose: 75.0 mg/kg/injection, schedule: Q04DX003 (ip), vehicle: saline with Tween-80 98 % of control | dose: 150.0 mg/kg/injection, schedule: Q04DX003 (ip), vehicle: saline with Tween-80 92 % of control | dose: 300.0 mg/kg/injection, schedule: Q04DX003 (ip), vehicle: saline with Tween-80 95 % of control

CC(C)(O)c1cnc(OCc2ccccc2)nc1OCc1ccccc1
inactive: [1] 98 % of control | dose: 100.0 mg/kg/injection, schedule: Q04DX003 (ip), vehicle: other 101 % of control | [3] 100 % of control | dose: 200.0 mg/kg/injection, schedule: Q04DX003 (ip), vehicle: other 106 % of control | [4] 103 % of control | dose: 400.0 mg/kg/injection, schedule: Q04DX003 (ip), vehicle: other 101 % of control

CCC/C=C/CCCCCC
inactive: dose: 50.0 mg/kg/injection, schedule: Q01DX009 (ip), vehicle: saline with Tween-80 93 % of control | dose: 100.0 mg/kg/injection, schedule: Q01DX009 (ip), vehicle: saline with Tween-80 93 % of control | dose: 200.0 mg/kg/injection, schedule: Q01DX009 (ip), vehicle: saline with Tween-80 104 % of control

CN(C)C(=O)c1cc[n+](Cc2ccc(Cl)c(Cl)c2)cc1
inactive: dose: 100.0 mg/kg/injection, schedule: Q04DX003 (ip), vehicle: saline 105 % of control

CCOc1ccc(N=NS(=O)(=O)O)cc1
inactive: dose: 1.25 mg/kg/injection, schedule: Q01DX009 (ip), vehicle: saline with Tween-80 94 % of control | dose: 2.5 mg/kg/injection, schedule: Q01DX009 (ip), vehicle: saline with Tween-80 91 % of control | [6] 94 % of control

COc1cc2nc3cc([N+](=O)[O-])ccc3c(Cl)c2cc1OC
inactive: [1] 96 % of control | [7] 97 % of control | [3] 88 % of control | [8] 98 % of control | [9] 103 % of control

NC(=O)CCCCCCCCC(N)=O
inactive: [10] 98 % of control | [11] 98 % of control | [12] 92 % of control

NNS(=O)(=O)c1ccc(N=Nc2ccccc2)cc1
inactive: dose: 100.0 mg/kg/injection, schedule: Q04DX003 (ip), vehicle: saline with Tween-80 90 % of control | dose: 200.0 mg/kg/injection, schedule: Q04DX003 (ip), vehicle: saline with Tween-80 93 % of control | dose: 400.0 mg/kg/injection, schedule: Q04DX003 (ip), vehicle: saline with Tween-80 97 % of control

Ic1c2ccccc2cc2ccccc12
inactive: dose: 50.0 mg/kg/injection, schedule: Q04DX002 (ip), vehicle: Klucel (hydroxypropylcellulose) (HPC) 95 % of control and 123 % of control | [2] 103 % of control and 86 % of control | [13] 108 % of control and 92 % of control | [5] 92 % of control
